Reference: patent US9855257B2, “4-alkynyl imidazole derivative and medicine comprising same as active ingredient” (KAKEN PHARMACEUTICAL CO., LTD., priority 2013, dated 2018)

How the values were obtained:
rat EP4 receptor = biological target: T1, rat EP4 receptor (Rattus norvegicus, UniProt P43114); assay: Rat EP4 receptor antagonistic action by the reporter assay method; assay type: cell-based; details: COS-7 cells expressing rat EP4 receptor, CRE-LUC reporter, PGE2 1×10^−8 mol/L; geometric mean of three cases; read-out: Intensity of EP4 Receptor Antagonistic Activity IC50
T1 construct: its translated region was integrated into the expression vector pShooter (Invitrogen); expressed in transfected cells; host or cells: COS-7 cells (Cercopithecus aethiops kidney), transiently co-transfected with ratEP4-pShooter and a CRE-LUC reporter vector
T1 sequence (P43114 whole entry): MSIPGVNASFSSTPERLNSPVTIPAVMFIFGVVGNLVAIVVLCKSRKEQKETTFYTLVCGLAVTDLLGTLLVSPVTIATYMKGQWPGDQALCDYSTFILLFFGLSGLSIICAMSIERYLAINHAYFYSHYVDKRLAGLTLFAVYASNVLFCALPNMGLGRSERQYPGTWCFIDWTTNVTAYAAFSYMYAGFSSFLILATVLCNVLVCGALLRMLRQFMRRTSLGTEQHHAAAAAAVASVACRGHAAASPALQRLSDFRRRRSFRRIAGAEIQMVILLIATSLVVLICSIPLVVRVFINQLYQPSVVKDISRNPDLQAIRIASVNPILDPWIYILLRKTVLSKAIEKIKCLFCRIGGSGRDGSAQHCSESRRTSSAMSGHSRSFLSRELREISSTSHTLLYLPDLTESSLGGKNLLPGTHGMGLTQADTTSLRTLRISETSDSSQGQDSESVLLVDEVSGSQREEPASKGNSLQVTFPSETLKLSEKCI
Description: Test for Evaluating the Rat EP4 Receptor Antagonistic Action by the Reporter Assay Method
The first step was the cloning of the rat EP4 receptor. Total RNA was prepared from the kidney extracted from rats. With the total RNA used as a template, the rat EP4 receptor gene was cloned by RT-PCR and its translated region was integrated into the expression vector pShooter (Invitrogen) to prepare a rat EP4 receptor expressing vector (ratEP4-pShooter).
In the next step, rat EP4 receptor expressing cells for use in the reporter assay were prepared. COS-7 cells (derived from the kidney of Cercopithecus aethiops) were cultured in Dulbecco's Modified Eagle Medium (DMEM) (supplemented with 10% fetal bovine serum) in a 75-cm^2 cell culture flask. After the cells proliferated to a subconfluent state, the medium was removed and rinsed with phosphate buffered physiological saline (PBS). Trypsin-EDTA and a growth medium were used to recover the cells, which were then centrifuged. The supernatant was removed and the cells were suspended in DMEM. The cell suspension was seeded on a 96-well plate at a density of 2×10^4 cells/100 μL/well and cultured. The DMEM was mixed with Plus reagent, Lipofectamine 2000, the rat EP4 receptor expressing vector (ratEP4-pShooter) and a CRE-LUC reporter vector (CLONTECH) to prepare a transfection solution. Three hours after the seeding of the cells, 50 μL of the medium was removed and 50 μL/well of the transfection solution was added, followed by culture overnight. Negative control cells were prepared using pShooter in place of the receptor expressing vector. The cells were seeded on a 96-well plate for reporter assay and cultured.
The medium on the 96-well plate was removed and a test compound was added in an amount of 50 μL/well. After ca. 30-min culture, a PGE2 solution (2×10^−8 mol/L) was added in an amount of 50 μL/well (final concentration of PGE2: 1×10^−8 mol/L). As a PGE2-free control, there were provided wells to which a test medium had been added in an amount of 50 μL/well. About three hours later, the medium was removed and reporter assay was performed in accordance with the protocol accompanying the Steady-Glo Luciferase Assay System kit. Luminous intensity was measured with a microplate reader (Fusion-FPα, PerkinElmer) and EP4 receptor antagonistic activity (%) was determined by the following calculation formula: EP4 receptor antagonistic activity (%)=[1−(RLU(A,X)−RLU(0))/(RLU(PGE2)−RLU(0))]×100 RLU(A,X): Luminous intensity expressed in relative luminescence units (RLU) for the case where the test compound (A) X (mol/L) and PGE2 10^−8 mol/L were both added; RLU(PGE2): Luminous intensity for the case where only PGE2 10^−8 mol/L was added; RLU(0): Luminous intensity for the case where neither test compound nor PGE2 was added.
In addition, a dose-response curve was plotted from the EP4 receptor antagonistic activities at varying concentrations of each test compound and using the following approximation formula, the IC50 (the concentration of the test compound required to inhibit the PGE2 inducing activity by 50%) was calculated to determine the intensity of the compound's EP4 receptor antagonistic activity. The results are shown in Table 2: Y=Bottom+(Top−Bottom)/{1+10^(Log IC50−Log X)} Bottom: 0 Top: 100 X: Concentration of the test compound (mol/L) Y: EP4 receptor antagonistic activity (%)

[1] = system: Carrageenin Induced Hyperalgesia in Rats; assay: Analgesic effect on carrageenin induced hyperalgesia in rats; assay type: in vivo; details: Rattus norvegicus, 2 h; SD male rats, oral 10 mg/5 mL/kg six hours after carrageenin, nociceptive threshold (Randall-Selitto) two hours after administration; 5˜7 cases; read-out: Percent Effectiveness
Description: Test for Evaluating Analgesic Effect on Carrageenin Induced Hyperalgesia in Rats
The animals were SD male rats (5-week old). Before treatment with carrageenin (or distilled water), the rats were measured for nociceptive thresholds in their right hind leg by the Randall-Selitto method and divided into a carrageenin treatment group and a non-treatment group to provide uniformity in nociceptive threshold. The carrageenin treatment group was given a 1 w/v % carrageenin solution and the non-treatment group given distilled water, each administered subcutaneously to the footpad of the right hind leg at a dose of 0.1 mL. Five hours after the treatment, the nociceptive thresholds were measured and the individuals with decreased thresholds were selected and grouped such that there was no inter-group difference in threshold. Six hours after the treatment, each test compound was orally administered at a dose of 10 mg/5 mL/kg. The control group was administered 0.5% methylcellulose. Two hours after the administration of the test compound (8 hours after the treatment), the nociceptive threshold was measured. The animals in the test compound group that had nociceptive thresholds greater than [(the mean nociceptive threshold of the control group)+2×standard deviation] were found “effective animals” and the percent effectiveness of each compound was calculated.

[2] = system: Carrageenin Induced Paw Edema in Rats; assay: Anti-inflammatory effect on carrageenin induced paw edema in rats; assay type: in vivo, rat; details: Wistar male rats, oral 10 mg/5 mL/kg one hour before carrageenin, paw volume four hours after treatment; means of 5˜8 cases
Description: Test for Evaluating the Anti-Inflammatory Effect on Carrageenin Induced Paw Edema in Rats
The animals were Wistar male rats (7-week old). The paw volume of the right hind leg was measured with a paw volume meter (PLETHYSMOMETER, Ugo Basile Model 7141 or 7150). One hour after orally administering a test compound at a dose of 10 mg/5 mL/kg, a carrageenin treatment group was given a 1 w/v % carrageenin solution and a non-treatment group given distilled water, each administered subcutaneously to the footpad of the right hind leg at a dose of 0.1 mL. Four hours after the treatment with carrageenin (or distilled water), the paw volume was measured and the change in paw volume from the pre-treatment value was calculated. The anti-inflammatory effect of the test compound was confirmed using the percent paw edema suppression (see below) as an indicator. In the present experimental models, Cerecoxib (COX inhibitor already available on the market as an anti-inflammatory/analgesic agent) was used as a positive control.

[3] = system: Adjuvant Induced Arthritis in Rats; assay: Anti-inflammatory and analgesic effects on adjuvant induced arthritis in rats; assay type: in vivo, rat; design: Percent Effectiveness: scale not given: direction of the effect not stated beside the values; details: Lewis male rats, oral 0.3 mg/kg once a day, day 9 to day 17 after adjuvant; for Percent paw edema suppression: measured at day 18, means of 8˜10 cases; for Percent Effectiveness: pain threshold at day 18, 8˜10 cases
Description: Test for Evaluating Anti-Inflammatory and Analgesic Effects on Adjuvant Induced Arthritis in Rats
The animals were Lewis male rats (6-week old). An adjuvant solution (2 mg/mL) was administered intradermally to the footpad of the left hind leg of each animal at a dose of 0.1 mL to create an arthritis model. Paw volume was measured with a paw volume meter (PLETHYSMOMETER, Ugo Basile Model 7141). For evaluation of pain thresholds, a probe fitted to the sensor site of Pressure Application Measurement (PAM, Ugo Basile Model 38500) was used to turn the foot sole of a rat upward (dorsiflexion) until it gave an indication of pain or discomfort (vocalization) and the load being applied was measured. Eight days after the treatment with the adjuvant, the paw volume and pain threshold of each treated foot were measured and the animals were grouped for oral administration of each test compound (0.3 mg/kg) which was performed for nine days on a once-a-day schedule starting at day 9 and ending at day 17 after the treatment. At day 18 after the treatment, the paw volume and pain threshold of each […] foot were measured.
The anti-inflammatory effect of the test compound was confirmed using the percent paw edema suppression as an indicator. Percent paw edema suppression (%)=[(paw volume change in the control group−paw volume in each treatment group)/(paw volume change in the control group−paw volume change in the non-treatment group)]×100
As for the analgesic effect, the animals in the test compound group that had nociceptive thresholds greater than [(the mean nociceptive threshold of the control group)+2×standard deviation] were found “effective animals” and the percent effectiveness of each compound was calculated.

[4] = system: Monoiodoacetic Acid Induced Joint Pain in Rats; assay: Analgesic effect on monoiodoacetic acid induced joint pain in rats; assay type: in vivo, rat; details: SD male rats, oral 10 mg/kg three days after MIA treatment, measured two hours later with incapacitance tester
Description: Test for Evaluating Analgesic Effect on Monoiodoacetic Acid Induced Joint Pain in Rats
The animals were SD male rats (6 week-old). The right knee of each animal was treated intraarticularly with monoiodoacetic acid (MIA) to induce joint pain. Three days after the MIA treatment, a test compound (10 mg/kg) was administered orally and two hours later, the loads on the right and left hind legs were measured with an incapacitance tester (Linton).

Row | Structure (SMILES) | IC50 (rat EP4 receptor) [nM] | responders at 10 mg/kg [1] [%] | Percent paw edema suppression [2] [%] | Percent paw edema suppression [3] [%] | Percent Effectiveness [3] [%] | suppression of right knee joint pain (ratio between the loads on the right and left hind legs) [4]
1 | CC(C)(O)C#Cc1nc(Cl)n(CCOc2ccc(Cl)cc2)c1C(=O)NCC1CCC(C(=O)O)CC1 (stereo not drawn) [Compound 39] | 35 | 100 | 22 |  |  | 
2 | COC(C)(C)C#Cc1nc(Cl)n(Cc2ccc(C(F)(F)F)cc2)c1C(=O)NC1(c2ccc(C(=O)O)cc2)CC1 [Compound 42, 4-(1-{2-Chloro-4-(3-methoxy-3-methyl-1-butyn-1-yl)-1-[4-(trifluoromethyl)benzyl]-1H-imidazole-5-carboxamido}cyclopropyl)benzoic acid] | 1.7 | 83 | 28 | 88 | 90 | suppression of right knee joint pain was confirmed
3 | COC(C)(C)C#Cc1nc(Cl)n(CCOc2ccc(Cl)cc2)c1C(=O)NCC1CCC(C(=O)O)CC1 (stereo not drawn) [Compound 40] | 9.5 | 100 | 29 |  |  | 
4 | COC(C)(C)C#Cc1nc(C2CC2)n(CCOc2ccc(Cl)cc2)c1C(=O)NCc1ccc(C(=O)O)cc1 [Compound 47, 4-({1-[2-(4-Chlorophenoxy)ethyl]-2-cyclopropyl-4-(3-methoxy-3-methyl-1-butyn-1-yl)-1H-imidazole-5-carboxamido}methyl)benzoic acid] | 34.7 | 67 | 26 |  |  | 
5 | COC(C)(C)C#Cc1nc(Cl)n(Cc2ccc(C)cc2)c1C(=O)NC[C@H]1CC[C@H](C(=O)O)CC1 [Compound 22, trans-4-{[2-Chloro-4-(3-methoxy-3-methyl-1-butyn-1-yl)-1-(4-methylbenzyl)-1H-imidazole-5-carboxamido]methyl}cyclohexanecarboxylic acid] | 11.8 | 83 | 19 | 90 | 60 | suppression of right knee joint pain was confirmed
6 | COC(C)(C)C#Cc1nc(Cl)n(Cc2ccc(C(F)(F)F)cc2)c1C(=O)NC[C@H]1CC[C@H](C(=O)O)CC1 [Compound 10, trans-4-({2-Chloro-4-(3-methoxy-3-methyl-1-butyn-1-yl)-1-[4-(trifluormethyl)benzyl]-1H-imidazole-5-carboxamido}methyl)cyclohexanecarboxylic acid] | 10.9 | 100 | 26 | 82 | 78 | suppression of right knee joint pain was confirmed
